From publication PMC9400670, “Establishing the selective phospholipid membrane coordination, permeation and lysis properties for a series of ‘druggable’ supramolecular self-associating antimicrobial amphiphiles” (Chemical Science, 2022)

Tests used:
[1] = Mouse plasma protein binding (rapid equilibrium dialysis) with plasma stability; assay type: in vitro ADME; conditions: for recovery at 4 h, 2 µM: mouse plasma, read-out: Recovery (PPB assay); for fraction unbound at 4 h, 2 µM: PPB
Description: page 7: Section 4: DMPK Methods and Further Discussion Materials used for DMPK studies: Sprague Dawley rat liver microsomes (male, 771 donors, Lot 1910100), CD-1 mouse liver microsomes (male, 6424 donors, Lot 2010017) and human liver microsomes (mixed gender,50 donors, Lot 1810003) were purchased from Sekisui Xenotech (Kansas City, USA). Microsomal incubations: SSA 1-6 and 10 (final concentration 1 µM) were pre-incubated for 10 min in mouse, rat, or human liver microsomes (final concentration 0.5 mg/mL prepared in 100 mM potassium phosphate buffered saline (PBS)) at 37°C. The reaction was initiated with the addition of the cofactor, NADPH-generating system. The NADPH-generating system consisted of NADP (1.3 mM, pH 7.4), glucose-6-phosphate (3.3 mM, pH 7.4), glucose-6-phosphate dehydrogenase (0.4 unit/mL) and MgCl2 (3.3 mM). The reaction was allowed to proceed for 45 min. At 0, 5, 10, 15, 30, and 45 min aliquots were sampled and quenched in ice cold acetonitrile with internal standard. Incubations were conducted in singlicate; control incubations (substituting PBS for NADPH) were conducted simultaneously. All control incubations were within acceptance criteria in mouse, rat, and human microsomes confirming stability was acceptable over 45 minutes in the absence of co-factor. Protein Binding studies: The fraction unbound in mouse plasma (BioIVT, Frankfurt Am Main, Germany) of SSA 1-6 and 10 were measured using a Rapid Equilibrium Dialysis device (Thermo Fisher Scientific, Loughborough, UK). Mouse plasma containing 2 µM of SSA 1-6 and 10 were dialysed against 100 mM PBS for 4h at 37°C at 5% CO2. Samples were removed, matrix matched and quenched with acetonitrile containing internal standard; further processing is described in: Sample preparation and liquid chromatography-mass spectrometry analysis. Caco-2 Permeability studies: The permeability assay for SSA 1-6 and 10 was performed at Cyprotex Discovery Limited (Macclesfield, UK) and analysed at Cancer Research Horizons. SSA 1-6 and 10 were incubated at a final concentration of 10 uM with human intestinal Caco-2 cells at 37°C, 5% CO2 with a relative humidity of 95%. After 120 minutes the apical compartment inserts and the companion plates were separated, and the apical and basolateral samples were transferred. Incubations were conducted in duplicate and the fluorescent membrane integrity marker; Lucifer Yellow was co- incubated with the SSA compounds at the start of the assay. Compounds of known permeability were used as controls and were within acceptance criteria. Further processing is described in: Sample preparation and liquid chromatography-mass spectrometry analysis. Sample preparation and liquid chromatography-mass spectrometry analysis: All samples were centrifuged at 3500 rpm at 4°C for 10 min to precipitate protein and enable sampling of supernatant prior to appropriate dilution for liquid chromatography-mass spectrometry (LC-MS/MS analysis). For the purpose of CLINT determination, samples were analysed using a Waters I-Class ultra-high- performance liquid chromatography (UHPLC) system coupled to a Waters Xevo TQ-XS mass spectrometer (Waters, Elstree, UK). Separation of analytes was achieved using an Accucore Vanquish C18+ column (1.5 µm, 50 x 2.1 mm) (Thermo Fisher Scientific, Hemel Hempstead) at a temperature of 40°C and a binary mobile phase gradient at a flow rate of 0.4 mL/min. Initial LC conditions comprised 95% solvent A (0.1% formic acid + 5 mM ammonium acetate in water), 5% solvent B (0.1% formic acid + 5 mM ammonium acetate in acetonitrile); this was ramped to 90% B at 5 min, and then immediately returned to initial conditions and held for the remaining 0.5 min of the method. Sample analysis was by electrospray ionisation combined with multiple reaction monitoring in negative ion mode. […]

PE-PG mix lipid vesicles = assay: Synthetic phospholipid vesicle membrane binding assay (fluorescence polarisation), PE-PG mix vesicles; conditions: lipid vesicles added to SSA (0.15 mM); n = 3; error = standard error; SSA alone set to 100 mP
Description: (§1) For intrinsically fluorescent SSAs 5, 6 and 8–12, FP titration experiments enabled the observation of SSA: phospholipid vesicle interactions. Here, an increase in FP value indicates an increase in the apparent size of the SSA as it interacts with the phospholipid vesicle. […]
(§2) Fluorescence polarisation: Lipid films were resuspended in Buffer (150 mM KCl, 10 mM HEPES, pH 7.4, 2 mM EGTA) and subjected to 9 freeze-thaw cycles in liquid nitrogen and extruded 20 times through a 200 nm polycarbonate membrane. Black bottom 96-well plates were prepared by serially diluting desired vesicle solution across the plate, the appropriate SSA solution (100 µL, 0.15 mM) was added to each well to give a total well volume of 200 µL. Fluorescent SSA solutions were set to a FP value of 100 mP. Data were acquired in endpoint mode. […]

PC lipid vesicles = assay: Synthetic phospholipid vesicle membrane binding assay (fluorescence polarisation), PC vesicles; conditions: lipid vesicles added to SSA (0.15 mM); n = 3; error = standard error; SSA alone set to 100 mP
Description: as §1, §2

[2] = tested on: E. coli total lipid vesicles; assay: Synthetic phospholipid vesicle membrane binding assay (fluorescence polarisation), E. coli total vesicles; conditions: lipid vesicles added to SSA (0.15 mM); n = 3; error = standard error; SSA alone set to 100 mP
Description: as §1, §2

[3] = tested on: E. coli polar lipid vesicles; assay: Synthetic phospholipid vesicle membrane binding assay (fluorescence polarisation), E. coli polar vesicles; conditions: lipid vesicles added to SSA (0.15 mM); n = 3; error = standard error; SSA alone set to 100 mP
Description: as §1, §2

[4] = mouse, % SSA recovered from the assay after 4 hours

Structure (SMILES)	Plasma stability ([1]; mouse, 4 h, 2 µM) [%]	recovery at 4 h, 2 µM [1, 4] [%]	fraction unbound at 4 h, 2 µM ([1]; mouse, plasma)	increase in FP, PE-PG mix (PE-PG mix lipid vesicles) [mP]	increase in FP, PC (PC lipid vesicles) [mP]	PPB class ([1]; mouse, plasma)	Recovery (PPB assay) ([1]; % SSA recovered from the assay after 4 hours) [%]	PPB ([1]; mouse, plasma, 4 h, 2 µM) [%]	increase in FP, E. coli total [2] [mP]	increase in FP, E. coli polar [3] [mP]
O=C(NCCCS(=O)(=O)O)Nc1ccc(C(F)(F)F)cc1 [SSA 2]	93	79	0.166							
O=C(NCS(=O)(=O)O)Nc1ccccc1-c1nc2ccccc2s1 [SSA 5]	92	109	< 0.003	36 ± 3	87 ± 4	very high			32 ± 3	40 ± 4
Cc1ccc2nc(-c3ccc(NC(=O)NCS(=O)(=O)O)cc3)sc2c1 [SSA 6]	90	101	0.007	9 ± 1	47 ± 8	very high			20 ± 1	35 ± 3
O=C(NCS(=O)(=O)O)Nc1ccc(C(F)(F)F)cc1 [SSA 3]	89						80	73.8		
O=C(O)CNC(=O)Nc1ccc(C(F)(F)F)cc1 [SSA 4]	96	86	0.328			low				
O=C(NCS(=O)(=O)O)Nc1ccc(C(F)(F)F)cc1 [SSA 1]	94	91	0.25			low				

Further lines, with some results ahead:

Plasma stability ([1]; mouse, 4 h, 2 µM) [%]	recovery at 4 h, 2 µM [1, 4] [%]	fraction unbound at 4 h, 2 µM ([1]; mouse, plasma)	increase in FP, PE-PG mix (PE-PG mix lipid vesicles) [mP]	increase in FP, PC (PC lipid vesicles) [mP]	PPB class ([1]; mouse, plasma)	Recovery (PPB assay) ([1]; % SSA recovered from the assay after 4 hours) [%]	PPB ([1]; mouse, plasma, 4 h, 2 µM) [%]	Structure (SMILES)	increase in FP, E. coli total [2] [mP]	increase in FP, E. coli polar [3] [mP]
			107 ± 3	163 ± 6				Cc1ccc2nc(-c3ccc(NC(=S)NCS(=O)(=O)O)cc3)sc2c1 [SSA 12]	199 ± 5	176 ± 2
			35 ± 2	35 ± 10				Cc1ccc2nc(-c3ccc(NC(=O)NCCC(=O)O)cc3)sc2c1 [SSA 9]	130 ± 5	53 ± 3
89	94	0.007	21 ± 2	26 ± 1	very high			Cc1ccc2nc(-c3ccc(NC(=O)NCCCS(=O)(=O)O)cc3)sc2c1 [SSA 10]	15 ± 2	25 ± 14
			45 ± 2	68 ± 1				Cc1ccc2nc(-c3ccc(NC(=O)NCC(=O)O)cc3)sc2c1 [SSA 11]	66 ± 4	79 ± 1
			32 ± 1	35 ± 4				O=C(NCS(=O)(=O)O)Nc1ccc(-c2nc3ccccc3s2)cc1 [SSA 8]	24 ± 3	27 ± 2
